Data as given in article PMC6270994, “The Hydractinia echinata Test-System. III: Structure-Toxicity Relationship Study of Some Azo-, Azo-Anilide, and Diazonium Salt Derivatives” (Molecules, 2014).
Structures can show the parent of a compound that is named as a salt.

These compounds were tested on Hydractinia echinata (assay: Hydractinia echinata test system (HeTS): reduction of Cs+-induced metamorphosis of larvae). Conditions: Hydractinia echinata; MRC50 in mol/L = concentration for 50% decrease of metamorphosis vs control; larvae exposed 3 h with Cs+, read after 24 h; read-out: M: experimental Mlog(1/MRC50) (converted).
Assay type: in vivo
Experimental: The average (C) concentrations of these values were calculated too. The MRC50 value calculations (Chicu et al.) result from the graphical representation of the metamorphosis variation, M (%), (Y axis) function of the xenobiotic’s concentration (mol/L) (X axis), where the metamorphosis decreases with the rise of the xenobiotic’s concentration. Thus, the MRC50 value represents the xenobiotic’s concentration (mol/L) necessary for a 50% decrease of metamorphosis, with respect to control.
For each concentration of substance experiments were performed in triplicate and were repeated at least twice.
Colonies of H. echinata (Biologische Anstalt, Helgoland, Germany) were used to obtain eggs and larvae. The culture medium was artificial seawater (980 mosmol, pH 8.2, 18 °C). In laboratory an artificial metamorphosis can be synchronically started by the introduction of Cs^+ ions or by using seawater without Mg^2+ ions; it then lasts only 24 h. Under the action of external stimulus of Cs^+ ions or Cs^+ ions together with the tested compounds, one part of larvae further lives as such and another one is metamorphosized to the polyp form. The evaluation of the influence of the tested substance is very clear this way, the proposed method being based on this aspect.
H. echinata larvae were exposed to seawater containing Cs^+ and simultaneously one of the test substances for 3 h. The percentage of animals that underwent metamorphosis (development into polyps) was determined after 24 h. […] We chose a concentration of inducers which caused about […] to three quarters of the larvae to metamorphose in order to have conditions which are highly sensitive against an inhibitory influence. […] This concentration was termed MRC50 (for Metamorphosis Reduction Concentration) and is similar to the effective EC50 concentration that gives half maximal effective response.
In the case of `C=C(O)c1cc([N+](=O)[O-])ccc1N=Nc1c(N)ccc2c(O)c(N=Nc3ccc(NC(=O)c4ccc(N=Nc5ccc(O)c(C(=O)O)c5)cc4)cc3)c(S(=O)(=O)O)cc12` [Compound 115, 5-{2-[4-({4-[2-(6-Amino-1-hydroxy-5-{2-[2-(1-hydroxy-ethenyl)-4-nitro-phenyl]diazen-1-yl}-3-sulfonaphthalen-2-yl)diazen-1-yl]phenyl}-carbamoyl)phenyl]-diazen-1-yl}-2-hydroxybenzoic acid], the EC50 is reported as 138 µM. `Nc1ccc(N=Nc2ccc(NC(=O)c3ccc(N=Nc4c(S(=O)(=O)O)cc5cc(S(=O)(=O)O)c(N=Nc6ccccc6)c(O)c5c4N)cc3)cc2)c(N)c1` [Compound 116, 4-Amino-3-{2-[4-({4-[2-(2,4-diamino-phenyl)diazen-1-yl]phenyl}carbamoyl)-phenyl]diazen-1-yl}-5-hydroxy-6-(2-phenyl-diazen-1-yl)-naphthalene-2,7-disulfonic acid] was tested, and the EC50 was 166 µM. In the case of `O=C(Nc1ccc(N=Nc2ccc(O)c(C(=O)Nc3ccccc3)c2)cc1)c1ccc(N=Nc2ccc(O)c(C(=O)Nc3ccccc3)c2)cc1` [Compound 117, 2-Hydroxy-5-{2-[4-(4-{2-[4-hydroxy-3-(phenylcarbamoyl)phenyl]diazen-1-yl}-benzamido)phenyl]-diazen-1-yl}-N-phenylbenzamide], the EC50 is reported as 166 µM. Work on `O=C(Nc1ccc(N=Nc2c(S(=O)(=O)O)cc3cc(NC(=O)c4ccccc4)ccc3c2O)cc1)c1ccc(N=Nc2ccc(O)c(C(=O)Nc3ccccc3)c2)cc1` [Compound 118, 7-Benzamido-4-hydroxy-3-{2-[4-(4-{2-[4-hydroxy-3-(phenyl-carbamoyl)phenyl]diazen-1-yl}benzamido)-phenyl]diazen-1-yl}naphthalene-2-sulfonic acid] yielded an EC50 of 224 µM. `O=C(Nc1ccc(N=Nc2c(S(=O)(=O)O)cc3cc(NC(=O)c4ccccc4)ccc3c2O)cc1)c1ccc(N=Nc2ccc(O)c(C(=O)O)c2)cc1` [Compound 119, 5-{2-[4-({4-[2-(6-Benzamido-1-hydroxy-3-sulfonaphthalen-2-yl)diazen-1-yl]-phenyl}carbamoyl)phenyl]diazen-1-yl}-2-hydroxybenzoic acid] was tested, and the EC50 was 22.4 µM. `Nc1c(N=Nc2ccc(NC(=O)c3ccc(N=Nc4ccc(O)c(C(=O)Nc5ccccc5)c4)cc3)cc2)cc(S(=O)(=O)O)c2ccccc12` [Compound 120, 4-Amino-3-{2-[4-(4-{2-[4-hydroxy-3-(phenyl-carbamoyl)phenyl]diazen-1-yl}benzamido)phenyl]-diazen-1-yl}naphthalene-1-sulfonic acid] gave an EC50 of 25.1 µM. For `Nc1ccc2cc(S(=O)(=O)O)c(N=Nc3ccc(NC(=O)c4ccc(N=Nc5ccc(O)c(C(=O)Nc6ccccc6)c5)cc4)cc3)c(O)c2c1` [Compound 121, 6-Amino-4-hydroxy-3-{2-[4-(4-{2-[4-hydroxy-3-(phenyl-carbamoyl)phenyl]diazen-1-yl}benzamido)-phenyl]diazen-1-yl}naphthalene-2-sulfonic acid], the EC50 was 31.6 µM. For `Nc1cc(S(=O)(=O)O)cc2cc(S(=O)(=O)O)c(N=Nc3ccc(NC(=O)c4ccc(N=Nc5ccc(O)c(C(=O)Nc6ccccc6)c5)cc4)cc3)c(O)c12` [Compound 122, 5-Amino-4-hydroxy-3-{2-[4-(4-{2-[4-hydroxy-3-(phenyl-carbamoyl)phenyl]-diazen-1-yl}-benzamido)phenyl]-diazen-1-yl}-naphthalene-2,7-disulfonic acid], the EC50 was 31.6 µM. Compound `O=C(Nc1ccc(N=Nc2c(O)c(S(=O)(=O)O)cc3cc(S(=O)(=O)O)ccc23)cc1)c1ccc(N=Nc2ccc(O)c(C(=O)Nc3ccccc3)c2)cc1` [Compound 127, 3-Hydroxy-4-{2-[4-(4-{2-[4-hydroxy-3-(phenylcarbamoyl)phenyl]diazen-1-yl}-benzamido)phenyl]-diazen-1-yl}-naphthalene-2,7-disulfonic acid] has an EC50 of 58.9 µM. In the case of `O=C(Nc1ccc(N=Nc2c(O)ccc3ccccc23)cc1)c1ccc(N=Nc2ccc(O)c(C(=O)Nc3ccccc3)c2)cc1` [Compound 128, 2-Hydroxy-5-{2-[4-({4-[2-(2-hydroxynaphthalen-1-yl)diazen-1-yl]-phenyl}carbamoyl)-phenyl]diazen-1-yl}-N-phenylbenzamide], the EC50 is reported as 53.7 µM.

Same assay, conditions: Hydractinia echinata; parent dye, Table 2; read-out: F(1+2+...)e experimental toxicity log(1/MRC50) (converted)
For `O=C(Nc1ccc(N=Nc2ccc(O)c(C(=O)Nc3ccccc3)c2)cc1)c1ccc(N=Nc2ccc(O)c(C(=O)Nc3ccccc3)c2)cc1` [Compound 117, 2-Hydroxy-5-{2-[4-(4-{2-[4-hydroxy-3-(phenylcarbamoyl)phenyl]diazen-1-yl}-benzamido)phenyl]-diazen-1-yl}-N-phenylbenzamide], the EC50 was 166 µM.

Same assay, conditions: MRC50 in mol/L = concentration for 50% decrease of metamorphosis vs control; larvae exposed 3 h with Cs+, read after 24 h
For `O=C(Nc1ccc2c(O)c(N=Nc3ccccc3)c(S(=O)(=O)[O-])cc2c1)Nc1ccc2c(O)c(N=Nc3ccccc3)c(S(=O)(=O)[O-])cc2c1.[Na+].[Na+]` [Compound 129, Direct Brilliant Orange], the “M: experimental Mlog(1/MRC50)” value was 3.65. For `O=C(Nc1ccc2c(O)c(N=Nc3ccc(N=Nc4ccc(S(=O)(=O)[O-])cc4)cc3S(=O)(=O)[O-])c(S(=O)(=O)[O-])cc2c1)Nc1ccc2c(O)c(N=Nc3ccc(N=Nc4ccc(S(=O)(=O)[O-])cc4)cc3S(=O)(=O)[O-])c(S(=O)(=O)[O-])cc2c1.[Na+].[Na+].[Na+].[Na+].[Na+].[Na+]` [Compound 132, Direct Red 80 (Saturn Rot F3B)], the “M: experimental Mlog(1/MRC50)” value was 3.80. With `COc1cc(NC(=O)c2ccccc2)c(OC)cc1[N+]#N` [Compound 135, Fast Blue RR Salt] the “M: experimental Mlog(1/MRC50)” value was 4.09. In the case of `CCOc1cc(NC(=O)c2ccccc2)c(OCC)cc1[N+]#N.[Cl-]` [Compound 136, Fast Blue BB Salt], the “M: experimental Mlog(1/MRC50)” value is reported as 4.17. With Bordo Direct AN [Compound 81] the “M: experimental Mlog(1/MRC50)” value was 3.86. In the case of Direct Black 32 [Compound 77], the “M: experimental Mlog(1/MRC50)” value is reported as 3.89. With Fast Red B Salt [Compound 137] the “M: experimental Mlog(1/MRC50)” value was 5.25.

Same assay, conditions: in vivo
In the case of `COc1ccc(N)cc1` [p-Methoxy-aniline], the “F(1), F(2),... individual log(1/MRC50) toxicity value” is reported as 3.32. With `Nc1ccc([N+](=O)[O-])cc1` [p-NA, p-nitroaniline] the “F(1), F(2),... individual log(1/MRC50) toxicity value” was 2.85.
